Structures can show the parent of a compound that is named as a salt. Where two headings read alike, the source gives them in different places.

Assay in all cases: AK assay 384-well format, Prestwick library screening
Assay [1] relates to S. aureus strain USA300-0114. The class given is cell-based, Staphylococcus aureus. The note with it: 50 μM final drug concentration; for fold induction at 50 µM: Staphylococcus aureus, USA300, 3 h.
Assay [2] concerns E. coli. Type of assay: cell-based, Escherichia coli. The note with it: 50 μM final drug concentration; for fold induction at 50 µM: Escherichia coli, 3 h.
Assay [3] relates to P. aeruginosa. The class given is cell-based, Pseudomonas aeruginosa. The note with it: 50 μM final drug concentration; for fold induction at 50 µM: Pseudomonas aeruginosa, 3 h.
Assay [4] has as its system K. pneumoniae. The class given is cell-based, Klebsiella pneumoniae. The note with it: 50 μM final drug concentration; for fold induction at 50 µM: Klebsiella pneumoniae, 3 h.
The test system of assay [5] is E. faecium. The class given is cell-based, Enterococcus faecium. The conditions noted are these: 50 μM final drug concentration; for fold induction at 50 µM: Enterococcus faecium, 3 h.
In assay [6] the test system is E. cloacae. Type of assay: cell-based, Enterobacter cloacae. The note with it: 50 μM final drug concentration; for fold induction at 50 µM: Enterobacter cloacae, 3 h.
For assay [7], the system named is A. baumannii strain 98-37-09. Type of assay: cell-based, Acinetobacter baumannii. The note with it: 50 μM final drug concentration; for fold induction at 50 µM: Acinetobacter baumannii, 983709, 3 h.
The mark [8] stands for this setting: planktonic S. aureus, positive cutoff 3-fold increase, read-out: AK-based Prestwick library screening result, S. aureus (fold increase in extracellular AK activity).
Where [9] appears, read: planktonic E. coli, positive cutoff 3-fold increase, read-out: AK-based Prestwick library screening result, E. coli (fold increase in extracellular AK activity).
The mark [10] stands for this setting: planktonic P. aeruginosa, positive cutoff 3-fold increase, read-out: AK-based Prestwick library screening result, P. aeruginosa (fold increase in extracellular AK activity).
Setting [11] is: planktonic K. pneumoniae, positive cutoff 3-fold increase, read-out: AK-based Prestwick library screening result, K. pneumoniae (fold increase in extracellular AK activity).
Where [12] appears, read: planktonic E. faecium, positive cutoff 3-fold increase, read-out: AK-based Prestwick library screening result, E. faecium (fold increase in extracellular AK activity).
[13] abbreviates: planktonic E. cloacae, positive cutoff 3-fold increase, read-out: AK-based Prestwick library screening result, E. cloacae (fold increase in extracellular AK activity).
The mark [14] stands for this setting: planktonic A. baumannii, positive cutoff 3-fold increase, read-out: AK-based Prestwick library screening result, A. baumannii (fold increase in extracellular AK activity).
The mark [15] stands for this setting: planktonic S. aureus, 384-well, cutoff for positive-scoring molecules 3-fold increase, read-out: AK-based Prestwick Library Screening Results: S. aureus (increase in extracellular AK activity).
Setting [16] is: planktonic E. coli, 384-well, cutoff for positive-scoring molecules 3-fold increase, read-out: AK-based Prestwick Library Screening Results: E. coli (increase in extracellular AK activity).
[17] abbreviates: planktonic P. aeruginosa, 384-well, cutoff for positive-scoring molecules 3-fold increase, read-out: AK-based Prestwick Library Screening Results: P. aeruginosa (increase in extracellular AK activity).
Setting [18] is: planktonic K. pneumoniae, 384-well, cutoff for positive-scoring molecules 3-fold increase, read-out: AK-based Prestwick Library Screening Results: K. pneumoniae (increase in extracellular AK activity).
Setting [19] is: planktonic E. faecium, 384-well, cutoff for positive-scoring molecules 3-fold increase, read-out: AK-based Prestwick Library Screening Results: E. faecium (increase in extracellular AK activity).
Setting [20] is: planktonic E. cloacae, 384-well, cutoff for positive-scoring molecules 3-fold increase, read-out: AK-based Prestwick Library Screening Results: E. cloacae (increase in extracellular AK activity).
[21] abbreviates: planktonic A. baumannii, 384-well, cutoff for positive-scoring molecules 3-fold increase, read-out: AK-based Prestwick Library Screening Results: A. baumannii (increase in extracellular AK activity).
[22] abbreviates: cutoff for positive-scoring molecules 3-fold increase.

Regarding `CCn1cc(C(=O)O)c(=O)c2cc3c(cc21)OCO3` [Oxolinic acid], the fold induction at 50 µM in assay [1] (384-well format, cutoff for positive-scoring molecules 3-fold increase, read-out: AK-based Prestwick Library Screening Results, S. aureus (increase in extracellular AK activity)) stood at 1; in assay [2] (384-well format, cutoff for positive-scoring molecules 3-fold increase, read-out: AK-based Prestwick Library Screening Results, E. coli (increase in extracellular AK activity)) it was 13.1; in assay [3] (384-well format, cutoff for positive-scoring molecules 3-fold increase, read-out: AK-based Prestwick Library Screening Results, P. aeruginosa (increase in extracellular AK activity)) it was 1; in assay [4] (384-well format, cutoff for positive-scoring molecules 3-fold increase, read-out: AK-based Prestwick Library Screening Results, K. pneumoniae (increase in extracellular AK activity)), 1.6; in assay [5] (384-well format, cutoff for positive-scoring molecules 3-fold increase, read-out: AK-based Prestwick Library Screening Results, E. faecium (increase in extracellular AK activity)), 1.1; in assay [6] (384-well format, cutoff for positive-scoring molecules 3-fold increase, read-out: AK-based Prestwick Library Screening Results, E. cloacae (increase in extracellular AK activity)), 4.3. Moreover, the fold induction at 50 µM in assay [7] (384-well format, cutoff for positive-scoring molecules 3-fold increase, read-out: AK-based Prestwick Library Screening Results, A. baumannii (increase in extracellular AK activity)) was 2.3.

Take `C=CCOc1ccccc1OCC(O)CNC(C)C` (stereo not shown) [Oxprenolol hydrochloride]: the fold induction at 50 µM in assay [1] (setting [8]) was 0.6; in assay [2] (setting [9]) it was 0.7; in assay [3] (setting [10]) it was 0.6; in assay [4] (setting [11]), 0.6; in assay [5] (setting [12]), 0.9; in assay [6] (setting [13]) it was 0.9. Also, in assay [7] (setting [14]), the fold induction at 50 µM came to 0.6.

With `COc1ccc(C(=O)c2ccccc2)c(O)c1` [Oxybenzone], the fold induction at 50 µM in assay [1] (planktonic, cutoff for positive-scoring molecules 3-fold increase, read-out: AK-based Prestwick Library Screening Results, S. aureus (fold increase in extracellular AK activity)) turned out to be 0.4; in assay [2] (planktonic, cutoff for positive-scoring molecules 3-fold increase, read-out: AK-based Prestwick Library Screening Results, E. coli (fold increase in extracellular AK activity)), 0.5; in assay [3] (planktonic, cutoff for positive-scoring molecules 3-fold increase, read-out: AK-based Prestwick Library Screening Results, P. aeruginosa (fold increase in extracellular AK activity)), 0.5; in assay [4] (planktonic, cutoff for positive-scoring molecules 3-fold increase, read-out: AK-based Prestwick Library Screening Results, K. pneumoniae (fold increase in extracellular AK activity)), 0.4; in assay [5] (planktonic, cutoff for positive-scoring molecules 3-fold increase, read-out: AK-based Prestwick Library Screening Results, E. faecium (fold increase in extracellular AK activity)) it was 0.7; in assay [6] (planktonic, cutoff for positive-scoring molecules 3-fold increase, read-out: AK-based Prestwick Library Screening Results, E. cloacae (fold increase in extracellular AK activity)) it was 0.6. Moreover, the fold induction at 50 µM in assay [7] (planktonic, cutoff for positive-scoring molecules 3-fold increase, read-out: AK-based Prestwick Library Screening Results, A. baumannii (fold increase in extracellular AK activity)) is 0.4.

Consider `CCN(CC)CC#CCOC(=O)C(O)(c1ccccc1)C1CCCCC1` (stereo not shown) [Oxybutynin chloride], for which the fold induction at 50 µM came out at 1.2 in assay [1] (setting [15]); 1.4 in assay [2] (setting [16]); 1 in assay [3] (setting [17]); 0.9 in assay [4] (setting [18]); 1.1 in assay [5] (setting [19]); 1.6 in assay [6] (setting [20]). Moreover, the fold induction at 50 µM in assay [7] (setting [21]) is 1.1.

As to `Cc1cc(C(C)(C)C)c(O)c(C)c1CC1=NCCN1` [Oxymetazoline hydrochloride], the fold induction at 50 µM in assay [1] (setting [15]) was found to be 1.1; in assay [2] (setting [16]), 1.1; in assay [3] (setting [17]) it was 1.2; in assay [4] (setting [18]), 1.1; in assay [5] (setting [19]) it was 1; in assay [6] (setting [20]), 1.3. Also, the fold induction at 50 µM in assay [7] (setting [21]) amounted to 1.4.

For the compound `CCCCC1C(=O)N(c2ccccc2)N(c2ccc(O)cc2)C1=O` (stereo not shown) [Oxyphenbutazone], in assay [1] (setting [22]), the “AK-based Prestwick Library Screening Results, S. aureus (fold increase in extracellular AK activity)” value amounted to 0.4. In addition, in assay [2] (setting [22]), the “AK-based Prestwick Library Screening Results, E. coli (fold increase in extracellular AK activity)” value was determined as 0.5. In addition, in assay [3] (setting [22]), the “AK-based Prestwick Library Screening Results, P. aeruginosa (fold increase in extracellular AK activity)” value came to 0.5. Moreover, in assay [4] (setting [22]), the “AK-based Prestwick Library Screening Results, K. pneumoniae (fold increase in extracellular AK activity)” value was determined as 0.5. In addition, in assay [5] (setting [22]), the “AK-based Prestwick Library Screening Results, E. faecium (fold increase in extracellular AK activity)” value was determined as 0.9. For the same compound, the “AK-based Prestwick Library Screening Results, E. cloacae (fold increase in extracellular AK activity)” value in assay [6] (setting [22]) came out at 0.5. The “AK-based Prestwick Library Screening Results, A. baumannii (fold increase in extracellular AK activity)” value in assay [7] (setting [22]) stood at 0.5.

Turning to `CN(C)[C@@H]1C(O)=C(C(N)=O)C(=O)[C@@]2(O)C(O)=C3C(=O)c4c(O)cccc4[C@@](C)(O)[C@H]3[C@H](O)[C@@H]12` [Oxytetracycline dihydrate], the fold induction at 50 µM amounted to 3.4 in assay [1] (setting [15]); 1 in assay [2] (setting [16]); 0.5 in assay [3] (setting [17]); 0.2 in assay [4] (setting [18]); 0.9 in assay [5] (setting [19]); 1.1 in assay [6] (setting [20]). Further, the fold induction at 50 µM in assay [7] (setting [21]) worked out at 5.3.

Take `O=C(O)/C=C/c1ccc(Cn2ccnc2)cc1` [Ozagrel hydrochloride]: the fold induction at 50 µM in assay [1] (setting [8]) was found to be 0.5; in assay [2] (setting [9]) it was 0.6; in assay [3] (setting [10]) it was 0.6; in assay [4] (setting [11]), 0.5; in assay [5] (setting [12]), 0.9; in assay [6] (setting [13]), 0.9. Also, the fold induction at 50 µM in assay [7] (setting [14]) came to 0.7.

As to `CC(=O)O[C@H]1C(=O)[C@@]2(C)[C@H]([C@H](OC(=O)c3ccccc3)[C@]3(O)C[C@H](OC(=O)[C@H](O)[C@@H](NC(=O)c4ccccc4)c4ccccc4)C(C)=C1C3(C)C)[C@]1(OC(C)=O)CO[C@@H]1C[C@@H]2O` [Paclitaxel], the fold induction at 50 µM came out at 1 in assay [1] (setting [15]); 1.1 in assay [2] (planktonic E. coli, 384-well, […], read-out: AK-based Prestwick Library Screening Results: E. coli (increase in extracellular AK activity)); 1 in assay [3] (setting [17]); 1 in assay [4] (setting [18]); 1 in assay [5] (setting [19]); 1.6 in assay [6] (setting [20]). In assay [7] (setting [21]), the fold induction at 50 µM came out at 1.3.

For the compound `COc1cc2c(cc1OC)-c1cc3ccc(OC)c(OC)c3c[n+]1CC2` [Palmatine chloride], the fold induction at 50 µM in assay [1] (planktonic S. aureus, cutoff for positive-scoring molecules 3-fold increase, read-out: AK-based Prestwick Library Screening Results, S. aureus (increase in extracellular AK activity)) was determined as 0.8; in assay [2] (planktonic E. coli, cutoff for positive-scoring molecules 3-fold increase, read-out: AK-based Prestwick Library Screening Results, E. coli (increase in extracellular AK activity)), 0.7; in assay [3] (planktonic P. aeruginosa, cutoff for positive-scoring molecules 3-fold increase, read-out: AK-based Prestwick Library Screening Results, P. aeruginosa (increase in extracellular AK activity)) it was 0.7; in assay [4] (planktonic K. pneumoniae, cutoff for positive-scoring molecules 3-fold increase, read-out: AK-based Prestwick Library Screening Results, K. pneumoniae (increase in extracellular AK activity)), 0.5; in assay [5] (planktonic E. faecium, cutoff for positive-scoring molecules 3-fold increase, read-out: AK-based Prestwick Library Screening Results, E. faecium (increase in extracellular AK activity)) it was 1; in assay [6] (planktonic E. cloacae, cutoff for positive-scoring molecules 3-fold increase, read-out: AK-based Prestwick Library Screening Results, E. cloacae (increase in extracellular AK activity)), 0.9. Further, in assay [7] (planktonic A. baumannii, cutoff for positive-scoring molecules 3-fold increase, read-out: AK-based Prestwick Library Screening Results, A. baumannii (increase in extracellular AK activity)), the fold induction at 50 µM amounted to 0.7.
